Here are results for 26 compounds from patent publication US20250263405A1, “HISTONE DEACETYLASE 6 INHIBITOR COMPOUNDS AND USES THEREOF” (VALO HEALTH, INC., priority 2021, published 2025).

A value given as a limit tells only on which side of the number the result lay.

The target in the test is HDAC6 (Homo sapiens (Human), UniProt Q9UBN7). In words: HDAC6 TR-FRET displacement assay. It is filed as binding. The note with it: displacement of fluorescein labeled tracer from HDAC6; 2 nM HDAC6, 1 nM tracer, 0.5 nM Tb-anti-GST antibody; 30 min pre-incubation, 6 hours at 25° C. From the text: HDAC6 and Tb-anti-GST antibody were purchased from Signal Chem (cat #PC124) and Cisbio (cat #61GSTTAH), respectively. HEPES, pH 7.5 was purchased from Teknova (Cat #H1575). All other buffer components, NaCl (cat #S5150), KCl (cat #60121), Triton X-100 (cat #T9284), GSH (cat #G4251), BGG (cat #G5009), and BSA (cat #A2153) were purchased from SIGMA.
Sequence of HDAC6 (Q9UBN7 whole entry): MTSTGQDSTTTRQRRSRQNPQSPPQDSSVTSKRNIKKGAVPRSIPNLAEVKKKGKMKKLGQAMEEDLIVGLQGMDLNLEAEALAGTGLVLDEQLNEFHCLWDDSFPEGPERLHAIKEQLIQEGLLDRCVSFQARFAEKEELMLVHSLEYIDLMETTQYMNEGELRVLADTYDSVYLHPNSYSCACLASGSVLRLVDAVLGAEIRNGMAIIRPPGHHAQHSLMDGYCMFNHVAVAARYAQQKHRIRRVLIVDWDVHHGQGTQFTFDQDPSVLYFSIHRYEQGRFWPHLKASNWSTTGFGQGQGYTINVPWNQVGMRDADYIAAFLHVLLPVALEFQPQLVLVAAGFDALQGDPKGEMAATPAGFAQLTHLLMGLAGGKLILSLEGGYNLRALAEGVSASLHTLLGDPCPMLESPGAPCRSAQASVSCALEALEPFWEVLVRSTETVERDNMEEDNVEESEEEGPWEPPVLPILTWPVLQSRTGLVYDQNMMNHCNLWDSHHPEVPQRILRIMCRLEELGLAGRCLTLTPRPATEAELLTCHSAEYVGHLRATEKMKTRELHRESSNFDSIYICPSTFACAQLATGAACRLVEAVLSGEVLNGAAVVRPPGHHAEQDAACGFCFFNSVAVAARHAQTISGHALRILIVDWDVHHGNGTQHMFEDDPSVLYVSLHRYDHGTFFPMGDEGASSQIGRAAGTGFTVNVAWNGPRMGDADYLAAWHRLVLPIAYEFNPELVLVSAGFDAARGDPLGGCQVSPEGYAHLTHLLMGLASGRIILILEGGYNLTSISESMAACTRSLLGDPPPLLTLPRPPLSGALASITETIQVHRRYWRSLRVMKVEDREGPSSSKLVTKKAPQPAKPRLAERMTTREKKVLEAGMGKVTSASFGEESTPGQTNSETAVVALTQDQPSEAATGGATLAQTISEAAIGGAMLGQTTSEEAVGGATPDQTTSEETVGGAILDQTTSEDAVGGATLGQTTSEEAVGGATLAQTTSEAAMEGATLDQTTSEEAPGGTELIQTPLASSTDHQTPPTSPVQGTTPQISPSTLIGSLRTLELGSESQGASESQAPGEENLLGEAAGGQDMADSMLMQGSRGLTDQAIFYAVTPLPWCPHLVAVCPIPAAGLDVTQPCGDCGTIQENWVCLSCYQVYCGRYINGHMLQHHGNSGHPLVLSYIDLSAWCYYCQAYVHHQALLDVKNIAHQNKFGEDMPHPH
Displacement of fluorescein labeled tracer 2-(6-hydroxy-3-oxo-3H-xanthen-9-yl)-5-({[5-(4-{[7-(hydroxycarbamoyl)-2H,3H,4H,5H-thieno[2,3-f][1,4]oxazepine-4-carbonyl]amino}phenoxy)pentyl]carbamothioyl}amino)benzoic acid from HDAC6 was measured in vitro using a TR-FRET assay. The assays were performed in 1536-well plates in a total volume of 6 μL in assay buffer consisting of 50 mM HEPES pH 7.5, 50 mM NaCl, 50 mM KCl, 0.01% Triton X-100, 0.5 mM GSH, 0.03% BGG, 0.01% BSA.
For concentration response curves (IC50 determination), Compounds were serially diluted 3-fold from 2 mM highest concentration to generate a 10-point concentration gradient. To perform the assay, 30 nL of compound gradient solutions were transferred to the assay plate using the ECHO acoustic dispenser to achieve a final concentration range of 10 μM to 0.000508 uM in 6 μL reaction. 3 μL of HDAC6 in assay buffer were added to the assay plates and pre-incubate at room temp. for 30 mins. After pre-incubation, 3 μL of the tracer and TB-anti-GST antibody mix were added to the assay plates. The final concentrations of HDAC6, tracer, and TB-anti-GST antibody for each assay are 2 nM, 1 nM, and 0.5 nM, respectively. Binding reactions were equilibrated at 25° C. for an additional 6 hours, then read in endpoint mode on the BMG PheraStar (BMG labtech) equipped with a 337-520-490 optical module. The ratio of the 520/490 nm emission was calculated to determine the relative amounts of HDAC6 and tracer complex residue in each well.
The percent inhibition of HDAC6 (IC50) was calculated according to the following equation.
As set forth in Table 1, “A” indicates an HDAC6 IC50 value of less than 200 nM; “B” indicates an HDAC6 IC50 value of greater than or equal to 200 nM and less than 500 nM; and “C” indicates an HDAC6 IC50 value of greater than or equal to 500 nM and less than 5 μM.
`CC(=O)N1Cc2c(F)cc(-c3noc(C(F)(F)F)n3)cc2OC[C@@H]1C` [Compound 25, 1-[(3S)-6-fluoro-3-methyl-8-[5-(trifluoromethyl)-1,2,4-oxadiazol-3-yl]-3,5-dihydro-2H-1,4-benzoxazepin-4-yl]ethanone] registered an IC50 of 200 to 500 nM. `C[C@H]1COc2cc(-c3noc(C(F)(F)F)n3)ccc2CN1CC(F)(F)F` [Compound 36, (S)-3-methyl-4-(2,2,2-trifluoroethyl)-8-(5-(trifluoromethyl)-1,2,4-oxadiazol-3-yl)-2,3,4,5-tetrahydrobenzo[f][1,4]oxazepine] yielded a half-maximal inhibitory concentration (IC50) of 500 to 5000 nM. `C[C@H]1COc2cc(-c3noc(C(F)(F)F)n3)ccc2CN1C` [Compound 35, (S)-3,4-dimethyl-8-(5-(trifluoromethyl)-1,2,4-oxadiazol-3-yl)-2,3,4,5-tetrahydrobenzo[f][1,4]oxazepine] came in with a concentration for half-maximal inhibition (IC50) of 200 to 500 nM. Regarding `C[C@H]1COc2cc(-c3nnc(C(F)F)o3)ccc2CN1C(=O)C(C)(C)C` [Compound 20, (S)-1-(8-(5-(difluoromethyl)-1,3,4-oxadiazol-2-yl)-3-methyl-2,3-dihydrobenzo[f][1,4]oxazepin-4(5H)-yl)-2,2-dimethylpropan-1-one], the 50% inhibitory concentration (IC50) was < 200 nM. Turning to `C[C@H]1COc2cc(-c3noc(C(F)(F)F)n3)cc(F)c2CN1C(=O)C(F)(F)F` [Compound 24, (S)-2,2,2-trifluoro-1-(6-fluoro-3-methyl-8-(5-(trifluoromethyl)-1,2,4-oxadiazol-3-yl)-2,3-dihydrobenzo[f][1,4]oxazepin-4(5H)-yl)ethan-1-one], the concentration for half-maximal inhibition (IC50) is < 200 nM. Take `C[C@H]1COc2cc(-c3noc(C(F)(F)F)n3)ccc2CN1C(=O)C1(C)CCOCC1` [Compound 16, (3S)-3-methyl-4-[(4-methyloxan-4-yl)carbonyl]-8-[5-(trifluoromethyl)-1,2,4-oxadiazol-3-yl]-3,5-dihydro-2H-1,4-benzoxazepine]: the IC50 was < 200 nM. `CC1(C(=O)N2Cc3ccc(-c4noc(C(F)(F)F)n4)cc3OC[C@@H]2c2ccccc2)CCCOC1` (single isomer, unassigned) [Compound 13]: the IC50 is < 200 nM. Take `CCN1CCC(C)(C(=O)N2Cc3c(F)cc(-c4noc(C(F)(F)F)n4)cc3OC[C@@H]2C)CC1` [Compound 55, (S)-(1-ethyl-4-methylpiperidin-4-yl)(6-fluoro-3-methyl-8-(5-(trifluoromethyl)-1,2,4-oxadiazol-3-yl)-2,3-dihydrobenzo[f][1,4]oxazepin-4(5H)-yl)methanone]: the IC50 is 200 to 500 nM. Regarding `CC1(C(=O)N2Cc3ccc(-c4nnc(C(F)F)o4)cc3OC[C@@H]2c2ccccc2)CCOCC1` [Compound 3, (S)-(8-(5-(difluoromethyl)-1,3,4-oxadiazol-2-yl)-3-phenyl-2,3-dihydrobenzo[f][1,4]oxazepin-4(5H)-yl)(4-methyltetrahydro-2H-pyran-4-yl)methanone], the IC50 was < 200 nM. The result for `CC1Oc2cc(-c3noc(C(F)(F)F)n3)ccc2CNC1=O` (centres unmarked) [Compound 50, 2-methyl-8-[5-(trifluoromethyl)-1,2,4-oxadiazol-3-yl]-4,5-dihydro-2H-1,4-benzoxazepin-3-one] reads < 200 nM. `CC(=O)N1CCC(C)(C(=O)N2Cc3c(F)cc(-c4noc(C(F)(F)F)n4)cc3OC[C@@H]2C)CC1` [Compound 48, (S)-1-(4-(6-fluoro-3-methyl-8-(5-(trifluoromethyl)-1,2,4-oxadiazol-3-yl)-2,3,4,5-tetrahydrobenzo[f][1,4]oxazepine-4-carbonyl)-4-methylpiperidin-1-yl)ethan-1-one] returned a 50% inhibitory concentration (IC50) of 200 to 500 nM. In the case of `CC(C)N1CCC(C)(C(=O)N2Cc3c(F)cc(-c4noc(C(F)(F)F)n4)cc3OC[C@@H]2C)CC1` [Compound 56, (S)-(6-fluoro-3-methyl-8-(5-(trifluoromethyl)-1,2,4-oxadiazol-3-yl)-2,3-dihydrobenzo[f][1,4]oxazepin-4(5H)-yl)(1-isopropyl-4-methylpiperidin-4-yl)methanone], the IC50 is < 200 nM. The compound `CC1(C(=O)N2Cc3ccc(-c4noc(C(F)(F)F)n4)cc3OCC23CC3)COC1` [Compound 47, (3-methyloxetan-3-yl)(8-(5-(trifluoromethyl)-1,2,4-oxadiazol-3-yl)-2H-spiro[benzo[f][1,4]oxazepine-3,1′-cyclopropan]-4(5H)-yl)methanone] registered an IC50 of 200 to 500 nM. On to `C[C@H]1COc2cc(-c3noc(C(F)(F)F)n3)cc(F)c2CN1C(=O)c1ccncc1` [Compound 49, (3S)-6-fluoro-3-methyl-4-[(pyridin-4-yl)carbonyl]-8-[5-(trifluoromethyl)-1,2,4-oxadiazol-3-yl]-3,5-dihydro-2H-1,4-benzoxazepine], for which the IC50 is 200 to 500 nM. Regarding `CC1(C(=O)N2Cc3ccc(-c4noc(C(F)(F)F)n4)cc3OC[C@@H]2c2ccccc2)CCCOC1` (single isomer, unassigned) [Compound 14], the 50% inhibitory concentration (IC50) is 500 to 5000 nM.

`C[C@H]1COc2cc(-c3noc(C(F)(F)F)n3)ccc2CN1S(C)(=O)=O` [Compound 33, (S)-3-methyl-4-(methylsulfonyl)-8-(5-(trifluoromethyl)-1,2,4-oxadiazol-3-yl)-2,3,4,5-tetrahydrobenzo[f][1,4]oxazepine]: the IC50 fell in the range of 200 to 500 nM. Turning to `FC(F)(F)c1nc(-c2ccc3c(c2)OCCN(c2nc4ccccc4[nH]2)C3)no1` [Compound 51, 4-(1H-benzo[d]imidazol-2-yl)-8-(5-(trifluoromethyl)-1,2,4-oxadiazol-3-yl)-2,3,4,5-tetrahydrobenzo[f][1,4]oxazepine], the IC50 is < 200 nM. `C[C@H]1COc2cc(-c3noc(C(F)(F)F)n3)cc(F)c2CN1C(=O)c1ccccc1` [Compound 44, (3S)-4-benzoyl-6-fluoro-3-methyl-8-[5-(trifluoromethyl)-1,2,4-oxadiazol-3-yl]-3,5-dihydro-2H-1,4-benzoxazepine] had an IC50 of 200 to 500 nM. Take `C[C@H]1COc2cc(-c3noc(C(F)(F)F)n3)cc(F)c2CN1C(=O)C(C)(C)C` [Compound 19, 1-[(3S)-6-fluoro-3-methyl-8-[5-(trifluoromethyl)-1,2,4-oxadiazol-3-yl]-3,5-dihydro-2H-1,4-benzoxazepin-4-yl]-2,2-dimethylpropan-1-one]: the IC50 was < 200 nM. Consider `CC(C)C(=O)N1CCOc2cc(-c3noc(C(F)(F)F)n3)ccc2C1` [Compound 53, 2-methyl-1-{8-[5-(trifluoromethyl)-1,2,4-oxadiazol-3-yl]-3,5-dihydro-2H-1,4-benzoxazepin-4-yl}propan-1-one], for which the IC50 was in the range of 200 to 500 nM. As for `COCC(=O)N1Cc2c(F)cc(-c3noc(C(F)(F)F)n3)cc2OC[C@@H]1C` [Compound 41, 1-[(3S)-6-fluoro-3-methyl-8-[5-(trifluoromethyl)-1,2,4-oxadiazol-3-yl]-3,5-dihydro-2H-1,4-benzoxazepin-4-yl]-2-methoxyethanone], the concentration for half-maximal inhibition (IC50) is < 200 nM. The result for `C[C@H]1COc2cc(-c3noc(C(F)(F)F)n3)cc(F)c2CN1C(=O)C1CCOCC1` [Compound 39, (3S)-6-fluoro-3-methyl-4-[(oxan-4-yl)carbonyl]-8-[5-(trifluoromethyl)-1,2,4-oxadiazol-3-yl]-3,5-dihydro-2H-1,4-benzoxazepine] reads < 200 nM. The result for `CC1(C(=O)N2Cc3ccc(-c4noc(C(F)(F)F)n4)cc3OC[C@@H]2c2ccccc2)CCOCC1` [Compound 4, (S)-(4-methyltetrahydro-2H-pyran-4-yl)(3-phenyl-8-(5-(trifluoromethyl)-1,2,4-oxadiazol-3-yl)-2,3-dihydrobenzo[f][1,4]oxazepin-4(5H)-yl)methanone] reads < 200 nM. On to `CC(C)(C)C(=O)N1Cc2ccc(-c3nnc(C(F)F)o3)cc2OC[C@@H]1c1ccccc1` [Compound 22, (S)-1-(8-(5-(difluoromethyl)-1,3,4-oxadiazol-2-yl)-3-phenyl-2,3-dihydrobenzo[f][1,4]oxazepin-4(5H)-yl)-2,2-dimethylpropan-1-one], for which the IC50 is < 200 nM. `C[C@H]1COc2cc(-c3noc(C(F)(F)F)n3)cc(F)c2CN1C(=O)CN(C)C` [Compound 43, (S)-2-(dimethylamino)-1-(6-fluoro-3-methyl-8-(5-(trifluoromethyl)-1,2,4-oxadiazol-3-yl)-2,3-dihydrobenzo[f][1,4]oxazepin-4(5H)-yl)ethan-1-one] showed a half-maximal inhibitory concentration (IC50) of 200 to 500 nM. With `CC1(C(=O)N2CCOc3cc(-c4noc(C(F)(F)F)n4)cc(F)c3C2)COC1` [Compound 37, 6-fluoro-4-[(3-methyloxetan-3-yl)carbonyl]-8-[5-(trifluoromethyl)-1,2,4-oxadiazol-3-yl]-3,5-dihydro-2H-1,4-benzoxazepine], the concentration for half-maximal inhibition (IC50) is < 200 nM.
